According to patent US10945685B2, “System and method for normalizing standardized uptake values in brain positron emission tomography (PET) images” (New York University, priority 2018, dated 2021):

How the values were obtained:
[1] = molecular target: T1, Monoamine oxidase B (MAO-B) (Homo sapiens, UniProt P27338); experiment: MAO-B off-target binding of tau PET tracer; assay type: in vivo; settings: SUVP data, Example I
T1 construct: from tissue; host or cells: brain of living AD patients and normal control subjects (in vivo PET)
T1 sequence (P27338 1-520): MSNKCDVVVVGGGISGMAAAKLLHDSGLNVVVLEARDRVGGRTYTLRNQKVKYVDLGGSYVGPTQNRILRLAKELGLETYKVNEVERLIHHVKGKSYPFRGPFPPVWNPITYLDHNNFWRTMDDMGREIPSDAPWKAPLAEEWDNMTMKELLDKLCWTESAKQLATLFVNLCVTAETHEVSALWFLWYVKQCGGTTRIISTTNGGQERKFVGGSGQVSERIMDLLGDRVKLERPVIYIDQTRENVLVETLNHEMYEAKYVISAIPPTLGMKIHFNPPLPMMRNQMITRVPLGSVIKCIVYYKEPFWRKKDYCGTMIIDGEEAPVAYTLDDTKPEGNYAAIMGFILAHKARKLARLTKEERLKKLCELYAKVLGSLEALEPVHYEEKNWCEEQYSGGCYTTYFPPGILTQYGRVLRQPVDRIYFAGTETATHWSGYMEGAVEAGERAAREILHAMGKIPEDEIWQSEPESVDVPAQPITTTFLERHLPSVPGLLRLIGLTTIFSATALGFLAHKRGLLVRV

[2] = molecular target: T1, Monoamine oxidase B (MAO-B); settings: recent data, background; cited from earlier work
[3] = molecular target: T2, Monoamine oxidase A (MAO-A) (Homo sapiens, UniProt P21397); settings: recent data, background; cited from earlier work
T2 sequence (P21397 1-527): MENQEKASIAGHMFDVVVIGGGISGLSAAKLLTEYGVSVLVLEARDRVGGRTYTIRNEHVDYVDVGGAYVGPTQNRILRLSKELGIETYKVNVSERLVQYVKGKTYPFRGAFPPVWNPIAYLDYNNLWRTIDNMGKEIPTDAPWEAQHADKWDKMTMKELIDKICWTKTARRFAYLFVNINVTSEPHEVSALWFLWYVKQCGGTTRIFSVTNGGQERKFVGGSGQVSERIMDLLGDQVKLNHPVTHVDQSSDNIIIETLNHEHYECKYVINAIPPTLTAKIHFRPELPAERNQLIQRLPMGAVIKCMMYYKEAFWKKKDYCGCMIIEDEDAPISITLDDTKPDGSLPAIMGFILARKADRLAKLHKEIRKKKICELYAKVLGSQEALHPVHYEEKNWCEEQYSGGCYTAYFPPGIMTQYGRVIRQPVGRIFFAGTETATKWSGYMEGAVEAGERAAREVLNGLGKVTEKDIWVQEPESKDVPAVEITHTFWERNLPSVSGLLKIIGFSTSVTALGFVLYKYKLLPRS

tau = experiment: Example II: global and regional tau binding by SUVR, PERSI and SUVP, 42 NL and 22 AD; assay type: in vivo, human; settings: with SUVR, 64 subjects
Description: Example II, as discussed below, provides an exemplary embodiment comparing tau PET uptake quantification methods based on a 18F-AV-1451 tracer. Quantitative measurement of tau bindings from PET tracers (such as AV1451) is crucial in the PET-based study of tauopathies (such as Alzheimer's). The standardized uptake value ratio (SUVR) method has been challenged by the off-target binding in reference region. An unbiased tau binding quantification may be achieved via several different methods, including the Parametric Estimate of Reference Signal Intensity (PERSI) method by Avid Radiopharmaceutical and standardized uptake value peak-alignment (SUVP) method. In Example II, we compared the sensitivity of SUVR, PERSI and SUVP methods on the same PET dataset, in both global and local regions.
Using SUVR, PERSI, and SUVP, we evaluated the global and regional tau binding of 18F-AV-1451 on 64 subjects, with 42 cognitively normal (NL) and 22 Alzheimer's disease (AD), and compared the group differences of tau binding under the three different methods. Cerebral cortex was used as ROI for global binding test. The average SUVP value in ROIs is computed by averaging all positive SUVP values (SUVP>0) within the ROI, and positive binding percentage (PBP) for SUVP is defined as the ratio of voxel number with SUVP>1.5 over the total voxel number within the ROI.

For `CNc1ccc(-c2ccc3cc(OC[C@H](O)CF)ccc3n2)cn1` [THK5351], the MAO-B off-target binding [1] is given as “MAO-B off-target binding in THK5351 was observed” and the MAO-B binding [2] is given as “widespread Monoamine oxidase B (MAO-B) binding”.
For `[18F]c1ccc(-c2ccc3c(c2)[nH]c2ccncc23)cn1` [AV-1451], the MAO-A binding [3] is listed as “some Monoamine oxidase A (MAO-A) binding” and the “tau binding, AD subjects versus cognitively normal NL subjects” value (tau) is listed as “significantly higher tau binding”.
